PubChem BioAssay AID602426 (Sanford-Burnham Center for Chemical Genomics, 2012)

Molecular target: Neurotensin receptor type 1 (Homo sapiens) (UniProt P30989)
Assay: NTR1 agonists, beta-arrestin spot formation, SAR follow-up, imaging, image-based, set 4 (AID 602426)
Conditions: NTR1-U2OS beta-arrestin-GFP spot imaging

Sequence of Neurotensin receptor type 1 (Homo sapiens) (P30989 whole entry, looked up): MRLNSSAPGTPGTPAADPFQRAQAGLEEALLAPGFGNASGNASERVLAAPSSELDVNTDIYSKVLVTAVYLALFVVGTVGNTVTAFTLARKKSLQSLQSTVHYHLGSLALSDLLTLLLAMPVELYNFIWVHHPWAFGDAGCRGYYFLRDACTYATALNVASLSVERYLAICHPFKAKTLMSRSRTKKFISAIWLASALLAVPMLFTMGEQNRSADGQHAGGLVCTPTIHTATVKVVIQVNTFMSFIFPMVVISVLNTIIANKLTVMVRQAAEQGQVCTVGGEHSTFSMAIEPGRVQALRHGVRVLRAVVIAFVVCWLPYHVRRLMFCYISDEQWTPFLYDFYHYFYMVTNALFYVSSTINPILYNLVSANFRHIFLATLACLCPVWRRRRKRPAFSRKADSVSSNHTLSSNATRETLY

- EC50: 925 nM
SMILES: COc1cccc(OC)c1-c1cc(C(=O)N[C@@H](CC(C)C)C(=O)O)nn1-c1ccnc2cc(Cl)ccc12
